Test results as given in US11337950B2, “Biologically active cannabidiol analogs” (University of Mississippi, priority 2016, dated 2022).
Where “and” joins values, the source holds several entries; their conditions need not be identical. Equal entries are not always repeated. Where two headings read alike, the source gives them in different places.

Assays:
[1] = Solubility of CBD and its analogs in Tocrisolve emulsion; type: physicochemical
Method: Formulations: 0.5% w/v CBD equivalent in Tocrisolve emulsion.
Tocrisolve composition: […] emulsion composed of a 1:4 ratio of soya oil/water that is emulsified with the block co-polymer Pluronic F68. Manufacturing process for the Tocrisolve emulsion: • Add accurately weighed amount of drug a glass vial. • Add required volume of Torcisolve blank emulsion to each vial • Vortex each vial for 5 minutes. • Sonicate each vial for 10 minutes. • Centrifuge each vial for 5 minutes at 9000 rpm at 25° C. • Collect the supernatant and analyze for CBD, CBD-Val Mono and CBD-Val-HS mono as applicable.

[2] = In vivo eye tissue levels 90 min after topical application in Tocrisolve emulsion (Examples 12-14); set-up: species or system New Zealand albino rabbits
Method: Conscious male New Zealand albino rabbits were used. The formulations were applied topically into the rabbits eyes (50 μL containing the equivalent of 250 μg CBD) in Tocrisolve® emulsion formulations as described in Example 11. The animals were sacrificed 90 min. after drug application and the eye tissues harvested for analysis.
The same procedure was followed as shown under Example 12. Additional CBD analogs were tested in this example. In this example the tissue levels of both free CBD and intact analog were determined.
Formulations: Fifty microlitres of 0.5% w/v CBD in Tocrisolve emulsion (Dose: 0.25 mg)
Animal model: Conscious male new Zealand albino rabbits, Duration of the study: 90 min.
Aqueous humor, Vitreous humor, Retina-Choroid and Iris-Ciliary bodies analysed for parent compound as well as CBD.
Formulations: Fifty microlitres of 0.5% w/v Tocrisolve emulsion formulations (Dose: 0.25 mg)
Animal model: Conscious male new Zealand albino rabbits, Duration of the study: 90 min

[3] = Bioavailability of CBD-Mono-VHS from a lipophilic suppository (Example 16); type: in vivo; set-up: unit not given here; conditions: rats, rectal 7.5 mg, Lipophilic (Wecobee M) Suppository; for Plasma Concentration of CBD-Mono-VHS: individual animals
Method: CBD-Mono-Val-Mono-HS was formulated in Wecobee M suppository base (a triglyceride lipophilic base) at 75 mg/mL of melted base. The study was carried out in a cannulated rat model. Three animals were administered 100 μl. each of the semisolid formulation for a rectal dose of 7.5 mg CBD-Mono-VHS. This is followed by collection of blood samples (250 μl.) at each data point (0, 0.25, 0.5, 1, 2, 4, 6, and 24 hr.). The blood was centrifuged and the plasma was used for LC-MS/MS analysis.

[4] = type: physicochemical; conditions: for Concentration of CBD-Mono-Val-Mono-HS: 37° C.
Method: The stability CBD and CBD analogs (CBD-Mono-VHS and CBD-Di-VHS) was evaluated under acidic and alkaline conditions to simulate exposure to gastric and intestinal fluids. The procedure is outlined as follows: • 1. Stock solution of 5 mg/mL CBD, CBD-Mono-Val-Mono HS, CBD-Di-Val-Di HS was prepared. • 2. Simulated Gastric Fluid (pH 1.2)+1% (SDS) was prepared and kept in 37° C. water bath. • 3. Physiological buffer (pH 7.4)+1% SDS was prepared and kept in 37° C. water bath. • 4. 100 μL of CBD, CBD-Mono-Val-Mono HS or CBD-Di-Val-Di-HS stock in acetonitrile (equivalent to 500 μg) was spiked into separate vials containing 5 ml of either pH 1.2 and 7.4. • 5. At each time point, 100 μL of the solution was withdrawn. • 6. 900 μL acetonitrile was added to each sample. • 7. All samples centrifuged at 4° C. and 13,000 rpm. • 8. 100 μL of the supernatant was withdrawn; to this 100 μL of supernatant, 900 μL of acetonitrile was added and placed in LC vials for analysis. Tables 9, 10 and 11, and FIGS. 7a, 7b, 18, and 19 show the results.

[5] = tested on: cisplatin-induced tactile allodynia; assay: Cisplatin-induced tactile allodynia model, electronic von Frey (Examples 23, 24); type: in vivo, C57BL/6 mice; conditions: Example 24, mice; for Doses with mean withdrawal thresholds significantly higher compared to vehicle: ps≤0.0001
[6] = Organ distribution of CBD-Mono-VHS after oral administration (Example 19); type: in vivo, rats; conditions: rat, oral 4 mg/animal
[7] = tested on: morphine place preference; assay: Morphine conditioned place preference, model of addiction (Example 25); conditions: mice, morphine groups, IP; CBD 2.5-20.0 mg/kg, CBD-val-HS 10.0 mg/kg
[8] = Table 3, Set 1, rabbit eye, 90 min post topical 50 μL Tocrisolve emulsion, dose 0.25 mg CBD
[9] = Table 4, Set 2, rabbit, 90 min post topical 50 μL Tocrisolve emulsion, dose 250 μg
[10] = rabbit eye, 90 min post topical, 0.25 mg CBD

C=C(C)C1CCC(C)=CC1c1c(O)cc(CCCCC)cc1OC(=O)[C@@H](NC(=O)CCC(=O)O)C(C)C (some centres unmarked) [CBD-Mono-VHS, CBD-Mono-Valinate-Mono-Hemisuccinate]
Maximum solubility achieved in Tocrisolve ([1]; as the substance itself): 1.18 % w/v
Maximum solubility achieved in Tocrisolve (In terms of CBD) ([1]; in terms of CBD): (0.61) % w/v
Analog Conc., AQ Humor [2, 8]: 90.3 ± 13.6 ng/g of tissue
Analog Conc., Iris Ciliary Bodies [2, 8]: 1034 ± 87.4 ng/g of tissue
Analog Conc., Retina Choroid [2, 8]: 689 ± 127 ng/g of tissue
CBD Conc., Iris Ciliary Bodies [2, 8]: 353 ± 43^ ng/g of tissue
CBD Conc., Retina Choroid [2, 8]: 194 ± 31.2 ng/g of tissue
Analog Concentration, Aqueous Humor [2, 9]: 98.7 ± 19.8 ng/g of tissue
Analog Concentration, Iris Ciliary Bodies [2, 9]: 422 ± 197 ng/g of tissue
Analog Concentration, Retina Choroid [2, 9]: 519 ± 476 ng/g of tissue
CBD concentration, Aqueous Humor [2, 9]: 61.3 ± 5.9 ng/g of tissue
CBD concentration, Iris Ciliary Bodies [2, 9]: 585 ± 103 ng/g of tissue
CBD concentration, Retina Choroid [2, 9]: 503 ± 373 ng/g of tissue
Ocular tissue levels of free CBD, in words (Example 13) [2, 10]: high levels of Free CBD in the retina choroid and iris-ciliary bodies
Ocular tissue levels of the applied substance, in words (Example 13) [2, 10]: detected in high concentration in the aqueous humor, retina choroid and iris-ciliary bodies
Penetration into the ocular tissues, in words (Example 14) ([2]; rabbit eye, topical Tocrisolve emulsion): superior analog for penetration into the different tissues of the eye
Plasma Concentration of CBD-Mono-VHS, Average ([3]; 0 hr): 0.0
Plasma Concentration of CBD-Mono-VHS ([3]; 0 hr): 0.0
Plasma Concentration of CBD-Mono-VHS, Average ([3]; 0.25 hr): 6.0
Plasma Concentration of CBD-Mono-VHS ([3]; 0.25 hr): 7.1 (2×) and 3.9
Plasma Concentration of CBD-Mono-VHS, Average ([3]; 0.5 hr): 11.1
Plasma Concentration of CBD-Mono-VHS ([3]; 0.5 hr): 9.0 and 12.8 and 11.6
Plasma Concentration of CBD-Mono-VHS, Average ([3]; 1 hr): 15.5
Plasma Concentration of CBD-Mono-VHS ([3]; 1 hr): 14.1 and 13.8 and 18.5
Plasma Concentration of CBD-Mono-VHS, Average ([3]; 2 hr): 20.6
Plasma Concentration of CBD-Mono-VHS ([3]; 2 hr): 12.7 and 14.5 and 34.6
Plasma Concentration of CBD-Mono-VHS, Average ([3]; 4 hr): 31.5
Plasma Concentration of CBD-Mono-VHS ([3]; 4 hr): 22.0 and 27.5 and 45.1
Plasma Concentration of CBD-Mono-VHS, Average ([3]; 6 hr): 39.8
Plasma Concentration of CBD-Mono-VHS ([3]; 6 hr): 24.8 and 41.6 and 53.0
Plasma Concentration of CBD-Mono-VHS, Average ([3]; 24 hr): 17.2
Plasma Concentration of CBD-Mono-VHS ([3]; 24 hr): 7.3 and 44.3
Concentration of CBD-Mono-Val-Mono-HS ([4]; Acid (pH 1.2), Time Point 0): 941 ng/mL
Concentration of CBD-Mono-Val-Mono-HS ([4]; Acid (pH 1.2), Time Point 15): 1380 ng/mL
Concentration of CBD-Mono-Val-Mono-HS ([4]; Acid (pH 1.2), Time Point 30): 1472 ng/mL
Concentration of CBD-Mono-Val-Mono-HS ([4]; Acid (pH 1.2), Time Point 60): 1579 ng/mL
Concentration of CBD-Mono-Val-Mono-HS ([4]; Acid (pH 1.2), Time Point 90): 1478 ng/mL
Concentration of CBD-Mono-Val-Mono-HS ([4]; Acid (pH 1.2), Time Point 120): 1519 ng/mL
Concentration of CBD-Mono-Val-Mono-HS ([4]; Base (pH 7.4), Time Point 0): 886 ng/mL
Concentration of CBD-Mono-Val-Mono-HS ([4]; Base (pH 7.4), Time Point 15): 1439 ng/mL
Concentration of CBD-Mono-Val-Mono-HS ([4]; Base (pH 7.4), Time Point 30): 1197 ng/mL
Concentration of CBD-Mono-Val-Mono-HS ([4]; Base (pH 7.4), Time Point 60): 1791 ng/mL
Concentration of CBD-Mono-Val-Mono-HS ([4]; Base (pH 7.4), Time Point 90): 1615 ng/mL
Concentration of CBD-Mono-Val-Mono-HS ([4]; Base (pH 7.4), Time Point 120): 1731 ng/mL
Stability under acidic (gastric juice) conditions, in words ([4]; pH 1.2, 37° C.): stable
Stability under physiologic / intestinal juice conditions, in words ([4]; pH 7.4, 37° C.): stable
Effect on cisplatin-induced tactile allodynia (eVF paw withdrawal), in words ([5]; 1.0 to 4.0 mg/kg (CBD equivalent) IP alone): dose-dependent attenuation of tactile allodynia that equal 2.5 mg/kg morphine at 3.0 and 4.0 mg/kg
Effect on cisplatin-induced tactile allodynia (eVF paw withdrawal), in words ([5]; 1.0 to 4.0 mg/kg (CBD equivalent) in combination with 0.1 mg/kg morphine, IP): shifted this dose response curve to the left where 2.0 mg/kg CBD-Mono-VHS attenuated tactile allodynia equal to that of 2.5 mg/kg morphine
Doses with mean withdrawal thresholds significantly higher compared to vehicle ([5]; IP alone): 2.0 to 4.0 mg/kg
Doses with mean withdrawal thresholds significantly higher compared to vehicle ([5]; IP, combination with 0.1 mg/kg morphine): 1.0 to 4.0 mg/kg
Organ level of CBD-Mono-VHS, KIDNEY ([6]; 2 HR): 353 ng/organ
Organ level of CBD-Mono-VHS, KIDNEY ([6]; 4 HR): 115 ng/organ
Effect on morphine place preference, in words [7]: significantly (P=0.005) blocked the addictive effects of morphine
